{"source": "patent US7354734B2", "about": "“Fungal proteins and nucleic acids encoding same” (priority 2003, dated 2008)", "key": {"[1]": {"target": "ruLAP1 (Trichophyton rubrum, UniProt Q5QHG5)", "sequence (Q5QHG5 21-373)": "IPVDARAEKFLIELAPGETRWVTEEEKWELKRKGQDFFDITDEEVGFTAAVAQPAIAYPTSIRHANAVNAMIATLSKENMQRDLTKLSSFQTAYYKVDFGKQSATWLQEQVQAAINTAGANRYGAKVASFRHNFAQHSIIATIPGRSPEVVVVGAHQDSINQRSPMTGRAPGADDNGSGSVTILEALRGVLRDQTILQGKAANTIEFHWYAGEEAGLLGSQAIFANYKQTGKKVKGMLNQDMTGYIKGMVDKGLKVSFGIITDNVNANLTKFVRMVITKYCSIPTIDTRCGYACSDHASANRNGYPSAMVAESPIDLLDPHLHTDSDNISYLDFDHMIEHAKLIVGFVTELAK", "format": "biochemical", "settings": "for effect of inhibitor on ruLAP1 activity: Leu-AMC 5 mM"}, "[2]": {"target": "ruLAP2 (Trichophyton rubrum, UniProt Q5QHG6)", "sequence (Q5QHG6 20-495)": "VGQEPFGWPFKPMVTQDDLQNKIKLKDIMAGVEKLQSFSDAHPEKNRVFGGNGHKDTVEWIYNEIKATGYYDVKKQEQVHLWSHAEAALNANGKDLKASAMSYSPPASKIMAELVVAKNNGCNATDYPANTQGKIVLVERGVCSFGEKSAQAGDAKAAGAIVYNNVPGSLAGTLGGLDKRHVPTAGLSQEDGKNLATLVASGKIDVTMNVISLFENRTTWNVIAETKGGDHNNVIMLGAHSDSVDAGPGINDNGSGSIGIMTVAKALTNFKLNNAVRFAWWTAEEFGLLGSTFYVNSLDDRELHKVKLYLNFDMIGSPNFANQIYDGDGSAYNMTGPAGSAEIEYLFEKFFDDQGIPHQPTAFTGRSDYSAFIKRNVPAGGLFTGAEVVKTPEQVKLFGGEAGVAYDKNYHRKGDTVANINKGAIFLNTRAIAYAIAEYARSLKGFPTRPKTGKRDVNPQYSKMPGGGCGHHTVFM", "format": "biochemical", "settings": "for effect of inhibitor on ruLAP2 activity: Leu-AMC 5 mM"}, "[3]": {"target": "fuLAP1 (Aspergillus fumigatus, UniProt Q5VJG6)", "sequence (Q5VJG6 16-388)": "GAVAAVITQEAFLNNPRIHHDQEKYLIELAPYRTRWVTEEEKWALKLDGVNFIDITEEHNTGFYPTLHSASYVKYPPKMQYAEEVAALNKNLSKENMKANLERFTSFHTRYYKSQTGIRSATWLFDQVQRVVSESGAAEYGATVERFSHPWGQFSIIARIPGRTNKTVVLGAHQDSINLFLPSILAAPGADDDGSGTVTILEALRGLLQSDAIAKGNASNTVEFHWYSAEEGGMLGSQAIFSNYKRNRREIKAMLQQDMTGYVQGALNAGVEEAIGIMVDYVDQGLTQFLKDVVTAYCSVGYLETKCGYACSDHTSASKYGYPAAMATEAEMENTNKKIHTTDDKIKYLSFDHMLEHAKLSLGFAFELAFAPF", "test": "biochemical", "format": "biochemical", "settings": "for remaining activity at 500 µM: inhibitor 500 μM"}, "[4]": {"test_system": "fuLAP2", "format": "biochemical, Aspergillus fumigatus", "settings": "for effect of inhibitor on fuLAP2 activity: Leu-AMC 5 mM"}, "[5]": {"target": "T1, pkLAP (microsomal LAP from porcine kidney) (Sus scrofa, UniProt P15145)", "T1 construct": "purchased Sigma; host or cells: porcine kidney", "T1 sequence (P15145 1-963)": "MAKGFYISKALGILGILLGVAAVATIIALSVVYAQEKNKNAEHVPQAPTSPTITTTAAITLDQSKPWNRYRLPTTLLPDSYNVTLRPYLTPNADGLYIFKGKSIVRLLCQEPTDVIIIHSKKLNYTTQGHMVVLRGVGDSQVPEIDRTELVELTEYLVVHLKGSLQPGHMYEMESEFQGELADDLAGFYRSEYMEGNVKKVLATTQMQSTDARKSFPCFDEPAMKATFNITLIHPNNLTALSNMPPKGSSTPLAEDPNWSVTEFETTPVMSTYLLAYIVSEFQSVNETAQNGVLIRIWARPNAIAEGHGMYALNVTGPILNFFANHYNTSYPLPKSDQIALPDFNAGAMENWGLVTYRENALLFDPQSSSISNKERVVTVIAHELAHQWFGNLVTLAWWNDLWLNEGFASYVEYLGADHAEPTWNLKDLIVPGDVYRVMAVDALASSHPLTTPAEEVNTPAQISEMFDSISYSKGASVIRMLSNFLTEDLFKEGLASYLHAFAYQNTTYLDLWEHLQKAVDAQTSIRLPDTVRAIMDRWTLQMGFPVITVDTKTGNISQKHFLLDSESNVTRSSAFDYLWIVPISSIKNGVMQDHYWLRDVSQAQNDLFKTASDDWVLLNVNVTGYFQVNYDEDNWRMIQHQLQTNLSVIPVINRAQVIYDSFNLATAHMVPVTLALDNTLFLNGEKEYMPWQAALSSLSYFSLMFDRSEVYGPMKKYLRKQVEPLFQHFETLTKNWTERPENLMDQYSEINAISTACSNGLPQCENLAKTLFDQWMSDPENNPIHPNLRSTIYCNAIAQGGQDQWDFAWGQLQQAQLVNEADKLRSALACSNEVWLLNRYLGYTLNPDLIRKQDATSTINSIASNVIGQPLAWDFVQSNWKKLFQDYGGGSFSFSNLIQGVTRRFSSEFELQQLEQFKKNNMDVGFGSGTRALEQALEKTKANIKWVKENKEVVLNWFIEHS", "test": "Effect of inhibitors and metallic cations on LAP activity (Leu-AMC)", "format": "biochemical"}, "[6]": {"settings": "cation salt 0.5 mM, Leu-MCA substrate, 15 min pre-incubation"}, "[7]": {"settings": "cation salt 1 mM, Leu-MCA substrate, 15 min pre-incubation"}, "[8]": {"settings": "Leu-AMC, cations 0.5 mM and 1 mM"}, "[9]": {"settings": "Leu-MCA substrate, 15 min pre-incubation, read-out: fuLAP1 activity as percentage of control reaction without inhibitor"}, "[10]": {"settings": "inhibitor 500 μM, Leu-MCA substrate, 15 min pre-incubation"}, "[11]": {"settings": "inhibitor 20 μM, Leu-MCA substrate, 15 min pre-incubation"}, "[12]": {"settings": "read-out: pkLAP activity as percentage of control reaction without inhibitor"}, "[13]": {"settings": "read-out: fuLAP1 activity as percentage of control reaction without inhibitor"}}, "note": "Where “and” joins values, the source holds several entries; their conditions need not be identical. Identical values can stand only once. Like-named read-outs stand apart in the source and are kept apart here."}
{"compound": "[Ca+2].[Cl-].[Cl-]", "note": "[Ca^++, CaCl2]", "values": [{"measurement": "ruLAP1 activity as percentage of control reaction without any cation", "setting": "[1]", "result": "151.7% and 175.6%"}, {"measurement": "ruLAP2 activity as percentage of control reaction without any cation", "setting": "[2]; [6]", "result": 126.6, "unit": "%"}, {"measurement": "ruLAP2 activity as percentage of control reaction without any cation", "setting": "[2]; [7]", "result": 141.9, "unit": "%"}, {"measurement": "effect of divalent cation on fuLAP1 activity", "setting": "[3]; [8]", "result": "inhibited"}, {"measurement": "fuLAP1 activity as percentage of control reaction without any cation", "setting": "[3]; [6]", "result": 54.9, "unit": "%"}, {"measurement": "fuLAP1 activity as percentage of control reaction without any cation", "setting": "[3]; [7]", "result": 43.3, "unit": "%"}, {"measurement": "effect of divalent cation on fuLAP2 activity", "setting": "[4]; [8]", "result": "activated"}, {"measurement": "fuLAP2 activity as percentage of control reaction without any cation", "setting": "[4]; [6]", "result": 110.0, "unit": "%"}, {"measurement": "fuLAP2 activity as percentage of control reaction without any cation", "setting": "[4]; [7]", "result": 165.4, "unit": "%"}, {"measurement": "pkLAP activity as percentage of control reaction without any cation", "setting": "[5]; [6]", "result": 177.4, "unit": "%"}, {"measurement": "pkLAP activity as percentage of control reaction without any cation", "setting": "[5]; [7]", "result": 161.8, "unit": "%"}]}
{"compound": "CC(=O)N[C@@H](CC(C)C)C(=O)N[C@@H](CC(C)C)C(=O)N[C@H](C=O)CCCNC(=N)N", "note": "[Leupeptin, leupeptin]", "values": [{"measurement": "effect of inhibitor on ruLAP1 activity", "setting": "[1]", "result": "no clear inhibitory effects"}, {"measurement": "effect of inhibitor on ruLAP2 activity", "setting": "[2]", "result": "no clear inhibitory effects"}, {"measurement": "effect of inhibitor on fuLAP1 activity", "setting": "[3]; Leu-AMC 5 mM", "result": "no clear inhibitory effects"}, {"measurement": "remaining activity at 100 µM", "setting": "[3]; inhibitor 100 μM, Leu-MCA substrate, 15 min pre-incubation, read-out: fuLAP1 activity as percentage of control reaction without inhibitor", "result": 149, "unit": "%"}, {"measurement": "effect of inhibitor on fuLAP2 activity", "setting": "[4]", "result": "no clear inhibitory effects"}, {"measurement": "fuLAP2 activity as percentage of control reaction without inhibitor", "setting": "[4]; inhibitor 100 μM, Leu-MCA substrate, 15 min pre-incubation", "result": 61, "unit": "%"}, {"measurement": "effect of inhibitor on pkLAP activity", "setting": "[5]; Leu-AMC 5 mM", "result": "no clear inhibitory effects"}, {"measurement": "remaining activity at 100 µM", "setting": "[5]; inhibitor 100 μM, Leu-MCA substrate, 15 min pre-incubation, read-out: pkLAP activity as percentage of control reaction without inhibitor", "result": 86, "unit": "%"}]}
{"compound": "[Cl-].[Cl-].[Mg+2]", "note": "[MgCl2]", "values": [{"measurement": "ruLAP1 activity as percentage of control reaction without any cation", "setting": "[1]", "result": "129.9% and 132.6%"}, {"measurement": "ruLAP2 activity as percentage of control reaction without any cation", "setting": "[2]; [6]", "result": 121.2, "unit": "%"}, {"measurement": "ruLAP2 activity as percentage of control reaction without any cation", "setting": "[2]; [7]", "result": 110.2, "unit": "%"}, {"measurement": "fuLAP1 activity as percentage of control reaction without any cation", "setting": "[3]; [6]", "result": 68.5, "unit": "%"}, {"measurement": "fuLAP1 activity as percentage of control reaction without any cation", "setting": "[3]; [7]", "result": 72.6, "unit": "%"}, {"measurement": "fuLAP2 activity as percentage of control reaction without any cation", "setting": "[4]; [6]", "result": 97.6, "unit": "%"}, {"measurement": "fuLAP2 activity as percentage of control reaction without any cation", "setting": "[4]; [7]", "result": 108.0, "unit": "%"}, {"measurement": "pkLAP activity as percentage of control reaction without any cation", "setting": "[5]; [6]", "result": 130.1, "unit": "%"}, {"measurement": "pkLAP activity as percentage of control reaction without any cation", "setting": "[5]; [7]", "result": 146.1, "unit": "%"}]}
{"compound": "CC(C)C[C@H](NC(=O)[C@@H](O)[C@H](N)Cc1ccccc1)C(=O)O", "note": "[bestatin]", "values": [{"measurement": "effect of inhibitor on ruLAP1 activity", "setting": "[1]", "result": "inhibited"}, {"measurement": "effect of inhibitor on ruLAP2 activity", "setting": "[2]", "result": "partial inhibitory effect"}, {"measurement": "effect of inhibitor on fuLAP1 activity", "setting": "[3]; Leu-AMC 5 mM", "result": "inhibited"}, {"measurement": "remaining activity at 500 µM", "setting": "[3]; [9]", "result": 11, "unit": "%"}, {"measurement": "effect of inhibitor on fuLAP2 activity", "setting": "[4]", "result": "partial inhibitory effect"}, {"measurement": "fuLAP2 activity as percentage of control reaction without inhibitor", "setting": "[4]; [10]", "result": 88, "unit": "%"}, {"measurement": "effect of inhibitor on pkLAP activity", "setting": "[5]; Leu-AMC 5 mM", "result": "inhibited"}, {"measurement": "remaining activity at 500 µM", "setting": "[5]; inhibitor 500 μM, Leu-MCA substrate, 15 min pre-incubation, read-out: pkLAP activity as percentage of control reaction without inhibitor", "result": 24, "unit": "%"}]}
{"compound": "Cc1ccc(S(=O)(=O)N[C@@H](Cc2ccccc2)C(=O)CCl)cc1", "note": "[TPCK]", "values": [{"measurement": "effect of inhibitor on ruLAP1 activity", "setting": "[1]", "result": "no clear inhibitory effects"}, {"measurement": "ruLAP1 activity as percentage of control reaction without inhibitor", "setting": "[1]; [11]", "result": 68, "unit": "%"}, {"measurement": "effect of inhibitor on ruLAP2 activity", "setting": "[2]", "result": "no clear inhibitory effects"}, {"measurement": "ruLAP2 activity as percentage of control reaction without inhibitor", "setting": "[2]; [11]", "result": 79, "unit": "%"}, {"measurement": "effect of inhibitor on fuLAP1 activity", "setting": "[3]; Leu-AMC 5 mM", "result": "no clear inhibitory effects"}, {"measurement": "fuLAP1 activity as percentage of control reaction without inhibitor", "setting": "[3]; [11]", "result": 95, "unit": "%"}, {"measurement": "effect of inhibitor on fuLAP2 activity", "setting": "[4]", "result": "no clear inhibitory effects"}, {"measurement": "fuLAP2 activity as percentage of control reaction without inhibitor", "setting": "[4]; [11]", "result": 87, "unit": "%"}, {"measurement": "effect of inhibitor on pkLAP activity", "setting": "[5]; Leu-AMC 5 mM", "result": "no clear inhibitory effects"}, {"measurement": "pkLAP activity as percentage of control reaction without inhibitor", "setting": "[5]; [11]", "result": 108, "unit": "%"}]}
{"compound": "CC(C)C[C@@H](N)[C@H](O)C(=O)N[C@H](C(=O)N[C@H](C(=O)N[C@@H](CC(=O)O)C(=O)O)C(C)C)C(C)C", "note": "[amastatin]", "values": [{"measurement": "effect of inhibitor on ruLAP1 activity", "setting": "[1]", "result": "strongly or totally inhibited"}, {"measurement": "effect of inhibitor on ruLAP2 activity", "setting": "[2]", "result": "strongly or totally inhibited"}, {"measurement": "effect of inhibitor on fuLAP1 activity", "setting": "[3]; Leu-AMC 5 mM", "result": "strongly or totally inhibited"}, {"measurement": "remaining activity at 500 µM", "setting": "[3]; [9]", "result": 17, "unit": "%"}, {"measurement": "effect of inhibitor on fuLAP2 activity", "setting": "[4]", "result": "strongly or totally inhibited"}, {"measurement": "fuLAP2 activity as percentage of control reaction without inhibitor", "setting": "[4]; [10]", "result": 0, "unit": "%"}, {"measurement": "effect of inhibitor on pkLAP activity", "setting": "[5]", "result": "strongly or totally inhibited"}, {"measurement": "remaining activity at 500 µM", "setting": "[5]; [12]", "result": 0, "unit": "%"}]}
{"compound": "O=C(O)CN(CCN(CC(=O)O)CC(=O)O)CC(=O)O", "note": "[EDTA]", "values": [{"measurement": "effect of inhibitor on ruLAP1 activity", "setting": "[1]", "result": "more sensitive"}, {"measurement": "effect of inhibitor on ruLAP2 activity", "setting": "[2]", "result": "more sensitive"}, {"measurement": "effect of inhibitor on fuLAP1 activity", "setting": "[3]", "result": "more sensitive"}, {"measurement": "remaining activity at 1000 µM", "setting": "[3]; [13]", "result": 19, "unit": "%"}, {"measurement": "remaining activity at 5000 µM", "setting": "[3]; [13]", "result": 16, "unit": "%"}, {"measurement": "fuLAP2 activity as percentage of control reaction without inhibitor", "setting": "[4]", "result": "50% and 77%"}, {"measurement": "remaining activity at 1000 µM", "setting": "[5]; [12]", "result": 68, "unit": "%"}, {"measurement": "remaining activity at 5000 µM", "setting": "[5]; [12]", "result": 99, "unit": "%"}]}
